ChEMBL document CHEMBL1201862, “PubChem BioAssay data set” (2004)
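Test compounds were applied to cells in 96-well plates for 48 hours at 5 doses. Here, GI50 denotes the concentration required for 50% inhibition of growth.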 The source made the active and inactive calls. Rule as the data show it: active = GI50 up to about 1.1 µM and inactive = higher.

Key:
Experiment in all cases: growth of human tumour cells (NCI), 48 h
HT-29 = system: HT-29
KM-20L2 = system: KM-20L2
OVCAR-8 = system: OVCAR-8
COLO 205 = system: COLO 205
EKVX = system: EKVX
UO-31 = system: UO-31
RXF 393 = system: RXF 393
SF-268 = system: SF-268
HL-60 = system: HL-60
K562 = system: K562
A549 = system: A549
NCI-H460 = system: NCI-H460
SNB-75 = system: SNB-75
CCRF-CEM = system: CCRF-CEM
OVCAR-3 = system: OVCAR-3
SW-620 = system: SW-620
HOP-62 = system: HOP-62
HOP-92 = system: HOP-92

Measured: GI50

O=C(O)Cn1c(=O)[nH]c(=O)c2[nH]cnc21
inactive: HT-29 > 100 µM | KM-20L2 > 100 µM | OVCAR-8 > 100 µM | COLO 205 > 100 µM | EKVX > 100 µM | UO-31 > 100 µM | RXF 393 > 100 µM | SF-268 > 100 µM | HL-60 > 100 µM | K562 > 100 µM | A549 > 100 µM | NCI-H460 > 100 µM | SNB-75 > 100 µM | CCRF-CEM > 100 µM | OVCAR-3 > 100 µM | SW-620 > 100 µM | HOP-62 > 100 µM

O=C1CC2CCN(C(=O)c3ccccc3)CC2CCN1 (stereo not drawn)
inactive: HT-29 > 100 µM | KM-20L2 > 100 µM | OVCAR-8 > 100 µM | COLO 205 > 100 µM | HOP-92 > 100 µM | EKVX > 100 µM | UO-31 > 100 µM | RXF 393 > 100 µM | SF-268 > 100 µM | HL-60 > 100 µM | K562 > 100 µM | A549 > 100 µM | NCI-H460 > 100 µM | SNB-75 > 100 µM | CCRF-CEM > 100 µM | OVCAR-3 > 100 µM | SW-620 > 100 µM | HOP-62 > 100 µM

CN(O)C(=O)Cc1ccccc1
inactive: HT-29 > 100 µM | KM-20L2 > 100 µM | OVCAR-8 > 100 µM | COLO 205 > 100 µM | HOP-92 > 100 µM | UO-31 > 100 µM | RXF 393 > 100 µM | SF-268 > 100 µM | HL-60 > 100 µM | K562 > 100 µM | A549 > 100 µM | NCI-H460 > 100 µM | SNB-75 67 µM | CCRF-CEM > 100 µM | OVCAR-3 > 100 µM | SW-620 > 100 µM | HOP-62 > 100 µM

C/C(=C\CNc1ncnc2c1ncn2C1CCCCO1)COP(=O)(O)O (stereo not drawn)
inactive: HT-29 > 100 µM | KM-20L2 > 100 µM | OVCAR-8 > 100 µM | COLO 205 > 100 µM | HOP-92 > 100 µM | EKVX > 100 µM | UO-31 > 100 µM | RXF 393 > 100 µM | SF-268 > 100 µM | HL-60 > 100 µM | K562 > 100 µM | A549 > 100 µM | NCI-H460 > 100 µM | SNB-75 > 100 µM | CCRF-CEM > 100 µM | OVCAR-3 > 100 µM | SW-620 > 100 µM | HOP-62 > 100 µM

COc1ccc2c(c1)N1CCc3cc(OC)c(OC)cc3C1C2 (stereo not drawn)
inactive: HT-29 70.3 µM | KM-20L2 73.3 µM | OVCAR-8 > 100 µM | COLO 205 > 100 µM | HOP-92 79.8 µM | EKVX > 100 µM | UO-31 85.9 µM | RXF 393 65 µM | SF-268 > 100 µM | HL-60 26.2 µM | K562 32.3 µM | A549 47.8 µM | NCI-H460 52.4 µM | CCRF-CEM 61 µM | SW-620 > 100 µM | HOP-62 > 100 µM

O=C(Nc1ccn(CCI)c(=O)n1)c1ccccc1
inactive: HT-29 > 100 µM | KM-20L2 > 100 µM | OVCAR-8 > 100 µM | COLO 205 > 100 µM | HOP-92 > 100 µM | EKVX > 100 µM | UO-31 > 100 µM | RXF 393 > 100 µM | SF-268 > 100 µM | HL-60 > 100 µM | K562 > 100 µM | A549 > 100 µM | NCI-H460 > 100 µM | SNB-75 > 100 µM | CCRF-CEM > 100 µM | OVCAR-3 > 100 µM | SW-620 > 100 µM | HOP-62 > 100 µM

O=C1OC(c2ccccc2)=N/C1=C\c1ccc2ccccc2c1
inactive: HT-29 > 100 µM | KM-20L2 > 100 µM | OVCAR-8 > 100 µM | COLO 205 > 100 µM | HOP-92 > 100 µM | EKVX > 100 µM | UO-31 > 100 µM | RXF 393 > 100 µM | SF-268 > 100 µM | K562 > 100 µM | A549 > 100 µM | NCI-H460 > 100 µM | SNB-75 > 100 µM | CCRF-CEM > 100 µM | OVCAR-3 > 100 µM | SW-620 > 100 µM

COCOC1CCCC[C@@]1(OCCOCCO[C@@]1(c2ccccc2)CCCC[C@H]1OCOC)c1ccccc1 (stereo partly drawn)
inactive: HT-29 > 100 µM | KM-20L2 > 100 µM | OVCAR-8 > 100 µM | COLO 205 > 100 µM | EKVX 37.8 µM | UO-31 > 100 µM | RXF 393 23.1 µM | SF-268 > 100 µM | HL-60 > 100 µM | K562 > 100 µM | A549 99.5 µM | NCI-H460 > 100 µM | SNB-75 24.4 µM | CCRF-CEM > 100 µM | OVCAR-3 > 100 µM | SW-620 > 100 µM | HOP-62 > 100 µM

ONc1ncnc2[nH]cnc12
inactive: HT-29 > 100 µM | KM-20L2 > 100 µM | OVCAR-8 > 100 µM | COLO 205 > 100 µM | HOP-92 > 100 µM | UO-31 > 100 µM | SF-268 > 100 µM | HL-60 14.7 µM | K562 64.4 µM | A549 > 100 µM | NCI-H460 > 100 µM | SNB-75 > 100 µM | CCRF-CEM > 100 µM | OVCAR-3 > 100 µM | SW-620 > 100 µM | HOP-62 > 100 µM
